Results taken from PubChem BioAssay (NCI).
Several values for one entry are separate records, joined by “and”; a condition that tells them apart may be missing. Identical values can stand only once.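 Following 48 hours of exposure in 96-well plates, responses at five concentrations were used to interpolate endpoints linearly. Abbreviation: GI50, concentration required for 50% inhibition of growth. TGI: concentration producing complete growth inhibition.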

Legend:
Assay in all cases: NCI-60 cell line screen, 48 h
IGROV1 ovarian = system: IGROV1 ovarian
KM12 colon = system: KM12 colon
PC-3 prostate = system: PC-3 prostate
K-562 leukemia = system: K-562 leukemia
NCI/ADR-RES ovarian = system: NCI/ADR-RES ovarian
HCT-116 colon = system: HCT-116 colon
SF-295 CNS = system: SF-295 CNS
COLO 205 colon = system: COLO 205 colon
MALME-3M melanoma = system: MALME-3M melanoma
EKVX NSCLC = system: EKVX NSCLC

SMILES	GI50 (IGROV1 ovarian)	TGI (IGROV1 ovarian)	GI50 (KM12 colon)	TGI (KM12 colon)	GI50 (PC-3 prostate)	TGI (PC-3 prostate)	GI50 (K-562 leukemia)	TGI (K-562 leukemia) [µM]	GI50 (NCI/ADR-RES ovarian)	TGI (NCI/ADR-RES ovarian)	GI50 (HCT-116 colon)	TGI (HCT-116 colon)	GI50 (SF-295 CNS)	TGI (SF-295 CNS)	GI50 (COLO 205 colon)	TGI (COLO 205 colon)	GI50 (MALME-3M melanoma)	TGI (MALME-3M melanoma)	GI50 (EKVX NSCLC) [µM]	TGI (EKVX NSCLC) [µM]
COc1cc(C(=O)n2nc(N)c3c(C)cc(C)nc32)cc(OC)c1OC	> 100 µM	> 100 µM	10.4 µM	> 100 µM	> 100 µM	> 100 µM	0.488 µM	> 100	16.3 µM	> 100 µM	42 µM	> 100 µM	> 100 µM	> 100 µM	> 40.9 µM	> 100 µM	> 100 µM	> 100 µM	–	–
CSc1nc2c(c(=O)n1C)C(c1ccccc1)C1=C(N2)/C(=C/c2ccccc2)CCC1 (centres undefined)	13.6 µM	> 100 µM	18.2 µM	> 100 µM	7.11 µM	> 100 µM	2.86 µM	> 100	4.07 µM	> 100 µM	3.41 µM	14.3 µM	4.67 µM	34 µM	10.3 µM	> 100 µM	5.87 µM	> 100 µM	24.2	> 100
O=C(C(=CN1CCN(C(=O)c2ccco2)C1=S)C(=O)c1ccccc1)c1ccccc1	5.58 µM	40.9 µM	2.31 µM	11.5 µM	23.6 µM	> 50 µM	3.24 µM	> 50	9.18 µM	19 µM	7.93 µM	17 µM	11.1 µM	33 µM	20 µM	> 50 µM	3.05 µM	43.3 µM	8.06	21.4
CNC(=O)c1cc(Oc2ccc(NC(=O)Nc3cc(C(C)(C)C)nn3-c3ccc4ncccc4c3)c(F)c2)ccn1	0.712 µM and 1.26 µM	6.61 µM and 6.8 µM	0.0422 µM and 0.0433 µM	5.19 µM and 5.41 µM	1.83 µM and 1.68 µM	6.78 µM and 5.17 µM	0.0151 µM and 0.0275 µM	> 100	2.65 µM and 3.36 µM	8.39 µM and 58.4 µM	1.41 µM and 1.37 µM	7.28 µM and 5.94 µM	1.69 µM and 1.58 µM	8.26 µM and 5.62 µM	0.459 µM and 0.62 µM	1.85 µM and 2.2 µM	0.212 µM and 0.0536 µM	1.31 µM and 0.5 µM	2.72	8.61
O=C1/C(=C/c2ccc([N+](=O)[O-])o2)Oc2ccc(Cl)cc21	1.92 µM	4.5 µM	1.88 µM	3.68 µM	1.92 µM	5.08 µM	0.438 µM	2.17	3.36 µM	> 100 µM	0.648 µM	2.01 µM	11.5 µM	49.1 µM	1.89 µM	4.08 µM	2.1 µM	4.47 µM	–	–
Cc1cc(N(CCNc2ccnc3cc(Cl)ccc23)Cc2ccc3c(c2)OCO3)nc(N2CCCC2)n1	1.54 µM	3.64 µM	2.7 µM	11.5 µM	2.85 µM	14 µM	0.7 µM	3.2	1.79 µM	5.56 µM	0.532 µM	2.14 µM	1.34 µM	2.88 µM	1.53 µM	3.17 µM	1.89 µM	3.54 µM	2.74	14.2
Cc1cc(N2CCOCC2)nc(NCc2cc(Nc3ccnc4cc(Cl)ccc34)ccc2F)n1	1.64 µM	3.92 µM	1.69 µM	3.21 µM	1.8 µM	3.48 µM	1.78 µM	4.49	1.73 µM	3.31 µM	1.51 µM	3.08 µM	1.59 µM	3.03 µM	0.665 µM	2.15 µM	1.98 µM	3.68 µM	1.52	3.91
CCC(=O)Nc1nnc(Cc2ccc(OC)c(OC)c2)s1	> 100 µM	> 100 µM	> 100 µM	> 100 µM	> 100 µM	> 100 µM	> 100 µM	> 100	> 100 µM	> 100 µM	> 100 µM	> 100 µM	> 100 µM	> 100 µM	> 100 µM	> 100 µM	> 100 µM	> 100 µM	–	–
O=C1NC(=NCCc2ccc(Br)cc2)S/C1=C\c1ccc2ncccc2c1	> 25 µM	> 25 µM	24.6 µM	> 25 µM	> 25 µM	> 25 µM	24.6 µM	> 25	> 20.6 µM	> 25 µM	16.7 µM	> 25 µM	> 23.2 µM	> 25 µM	> 25 µM	> 25 µM	> 21.7 µM	> 25 µM	–	–
CC(C)(C)[Si](C)(C)OC1[C@@H](COC(=O)NC(=O)CCl)O[C@@H](n2cnc3c(N)ncnc32)[C@H]1O[Si](C)(C)C(C)(C)C (some centres undefined)	0.783 µM	1.67 µM	2.55 µM	6.48 µM	3.15 µM	9.79 µM	1.36 µM	3.36	5.44 µM	12.2 µM	1.53 µM	5.15 µM	7.52 µM	14.3 µM	1.9 µM	4.79 µM	0.984 µM	2.01 µM	–	–
Cc1c(C(N)=O)sc2nc(C)n(/N=c3\scc(-c4ccccc4)n3Cc3ccccc3)c(=O)c12	1.43 µM	6.31 µM	3.37 µM	> 100 µM	2.15 µM	8.31 µM	8.89 µM	> 100	2.9 µM	29.2 µM	2.13 µM	10.3 µM	2.93 µM	> 100 µM	2.39 µM	7.32 µM	2.18 µM	> 100 µM	–	–
Clc1ccc(-c2nc(NCc3ccco3)c3ccccc3n2)c(Cl)c1	22.2 µM	> 100 µM	10.2 µM	27.3 µM	13.9 µM	55.7 µM	8.7 µM	60.4	26.3 µM	> 100 µM	16.3 µM	45.8 µM	13.6 µM	33.5 µM	21.4 µM	> 100 µM	12.9 µM	32.4 µM	–	–
CCOC(=O)/C=C1/SC(=Nc2ccc(C#N)cc2)N(Cc2ccco2)C1=O	3.22 µM	20.2 µM	2.13 µM	5.01 µM	3.11 µM	9.96 µM	3.16 µM	11.4	3.42 µM	90.8 µM	2.06 µM	4.97 µM	9.99 µM	26.6 µM	–	–	2.45 µM	9.65 µM	5.66	30.2
